Experimental data published in patent US7501281B2, “Compositions, methods and kits related to thrombin, Notch signaling and stamatogenesis and growth of stem cells” (Maine Medical Center Research Institute, priority 2003, dated 2009).

Experiments:
[1] = system: Swiss 3T3 cells expressing a dominant-negative FGFR1 mutant; test: DNA synthesis assay, (3H)-thymidine autoradiography; type: cell-based, murine; conditions: 10 μg/ml α-thrombin
Procedure: A combination of (^3H)-thymidine autoradiography and immunohistochemistry was used to evaluate the levels of DNA synthesis in Swiss 3T3 cells expressing a dominant-negative FGFR1 mutant. Swiss 3T3 cells were plated at 50% confluency on glass coverslips precoated with fibronectin (10 μg/cm^2) for 24 hours. The cells were transfected with the pCS2 vector expressing a dominant-negative X. laevis FGFR1 deletion mutant lacking the FGFR1 intracellular domain (a gift from Dr. R. Friesel) using the Fugene 6 reagent (Roche). After 24 hours, the medium was changed to DMEM containing 0.25% BCS and following a 48 hour incubation in low BCS, the cells were stimulated with either 10 μg/ml of α-thrombin, 10% BCS or 10 ng/ml of recombinant FGF1 plus 10 units/ml of heparin. After stimulation for 24 hours, (^3H)-thymidine (NEN; 1 μCi/ml) was added to the medium and cells were incubated for 12 hours and fixed with 4% neutral formaldehyde. […] The percentage of (^3H)-labeled nuclei among the dnFGFR1-positive and dnFGFR1-negative cells was quantitated using an inverted Olympus microscope.
Thus, a dominant-negative (dn) FGFR1 construct was expressed in Swiss 3T3 cells and their proliferative index measured in the presence and absence of exogenous thrombin.

human Jagged1 = biological target: T1, human Jagged1 (Homo sapiens, UniProt P78504, A1171G); test: Thrombin cleavage of in vitro translated Jagged1 and Edman microsequencing; type: biochemical
T1 construct: full-length Jagged1 was in vitro transcribed and translated; made in house; host or cells: cell-free: T7-coupled reticulocyte lysate in vitro transcription/translation system (Promega)
T1 sequence (P78504 34-1218 A1171G): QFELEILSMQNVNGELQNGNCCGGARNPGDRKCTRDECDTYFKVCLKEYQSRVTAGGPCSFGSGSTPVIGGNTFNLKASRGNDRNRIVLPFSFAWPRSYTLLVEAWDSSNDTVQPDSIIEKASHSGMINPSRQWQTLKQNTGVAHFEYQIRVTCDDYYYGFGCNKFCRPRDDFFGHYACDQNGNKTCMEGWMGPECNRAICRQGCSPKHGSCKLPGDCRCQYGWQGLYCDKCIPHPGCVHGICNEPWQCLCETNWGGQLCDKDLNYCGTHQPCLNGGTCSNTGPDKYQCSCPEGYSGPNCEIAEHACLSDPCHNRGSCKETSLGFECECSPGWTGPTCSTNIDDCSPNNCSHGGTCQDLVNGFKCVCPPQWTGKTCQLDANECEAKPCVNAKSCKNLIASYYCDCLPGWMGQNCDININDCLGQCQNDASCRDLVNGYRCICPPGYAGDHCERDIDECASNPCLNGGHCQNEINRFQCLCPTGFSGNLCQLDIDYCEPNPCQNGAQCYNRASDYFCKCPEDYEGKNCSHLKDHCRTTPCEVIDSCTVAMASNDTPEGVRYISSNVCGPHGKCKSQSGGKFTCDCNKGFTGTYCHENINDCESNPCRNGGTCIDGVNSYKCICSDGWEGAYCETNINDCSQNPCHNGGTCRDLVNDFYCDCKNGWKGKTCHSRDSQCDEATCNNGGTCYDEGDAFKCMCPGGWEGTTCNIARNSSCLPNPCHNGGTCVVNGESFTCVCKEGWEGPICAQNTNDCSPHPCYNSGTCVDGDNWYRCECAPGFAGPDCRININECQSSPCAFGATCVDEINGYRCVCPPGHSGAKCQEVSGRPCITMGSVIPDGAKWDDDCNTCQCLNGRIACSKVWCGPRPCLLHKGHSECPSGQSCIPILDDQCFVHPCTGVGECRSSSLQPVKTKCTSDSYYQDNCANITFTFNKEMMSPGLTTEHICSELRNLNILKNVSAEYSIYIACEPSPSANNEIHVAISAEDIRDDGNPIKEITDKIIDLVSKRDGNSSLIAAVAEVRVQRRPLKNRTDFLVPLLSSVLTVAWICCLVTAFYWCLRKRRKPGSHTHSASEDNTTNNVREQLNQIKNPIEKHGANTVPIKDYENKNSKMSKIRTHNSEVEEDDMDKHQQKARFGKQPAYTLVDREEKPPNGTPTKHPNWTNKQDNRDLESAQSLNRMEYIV
Procedure: A plasmid containing human Jagged1 (Zimrin et al., 1996, J. Biol. Chem. 271:32499-32502) was in vitro transcribed and in vitro translated in the presence of a (^35S)-Met/Cys protein-labeling mixture (Amersham) using the T7-coupled reticulocyte lysate system according to the manufacturer's instructions (Promega) in a total volume of 50 μl. After 60 minutes incubation at 30° C., 0.05% DTT was added, half of the reaction mixture incubated with 10 μg α-thrombin for 15 minutes at 37° C., and the reaction stopped by boiling in the presence of SDS-PAGE sample buffer. The samples were resolved by 12% SDS-PAGE, transferred to a nitrocellulose membrane, and analyzed by autoradiography. […] The products of each cycle were collected prior to resolution by HPLC, added to liquid scintillation fluid (Beckman) and the (^35S) samples quantitated by liquid scintillation spectroscopy (Beckman).
In an attempt to further define this pathway and the role that sJ1 might play in the regulation of cell proliferation, it was assessed if the Jagged1 translation product was susceptible to proteolytic cleavage by thrombin. […] The Jagged1 transcript was translated in vitro in the presence of (^35S)-Cys, resolved by SDS-PAGE, the 95 kDa fragment excised, subjected to automated Edman chemistry and the products of each cycle monitored by liquid scintillation spectroscopy. […]

primary NCSC populations = test: Clonogenic differentiation of primary NCSC, dosage sensitivity to Notch ligands; type: cell-based, rat; conditions: two week differentiation assay
Procedure: FIG. 12A depicts an RT-PCR analysis of FGF1.A mRNA expression. Briefly, populations of murine NCSC were treated for 48 hours in Morrison media supplemented with either 7.5 nM sJ1, 5.0 nM sDl1, 10 μg/ml of α-thrombin or 5 μg/ml TRAP, and the steady-state levels of the FGF1.A mRNA were measured using RT-PCR as described elsewhere herein. […] Clonogenic differentiation assays of murine NCSC populations were assessed by maintaining the cells in Morrison media supplemented with increasing concentrations of either sJ1 or sDl1. The results are presented as the number of colonies at day 14 (mean±standard deviation for at least three experiments) originating from three independent cell isolations as function of concentration of sJ1 and sDl1 using two assays of ligand sensitivity: the percentage of glial-only clones (▪-▪; ▴-▴) and the percentage of neuron-containing clones (♦-♦; ▾-▾) produced after 14 days of ligand exposure. Legend: (▴-▴)sJ1/Glial, (▾-▾) sDl1/Glial (♦-♦) sJ1/Neural and (▾-▾) sJDl1/Neural. […] Clonogenic differentiation assays of NCSC populations was assessed by maintaining the cells in Morrison media supplemented with either 7.5 nM sJ1 (▪-▪) or 5 nM sDl1 (▴-▴). The onset of gliogenic differentiation was determined by GFAP immunohistochemistry. Results are presented as the percentage of GFAP-positive clones (mean±standard deviation of three experiments). […]

Substance | DNA synthesis frequency with dnFGFR1 expression [1] | Jagged1 cleavage site (human Jagged1; Edman microsequencing of the 95 kDa fragment) | cleavage products of the 134 kDa Jagged1 translation product (human Jagged1; α-thrombin 15 minutes at 37° C.) | gliogenic differentiation of the NCSC population (primary NCSC populations)
Thrombin | level consistent with a quiescent cellular phenotype | between residues R348 and G349 | cleavage of the full-length Jagged1 protein into 39 kDa and 95 kDa fragments | 
sJ1: Soluble Jagged1, amino acid residues from about 1 to 1067 (SEQ ID NO:3) of full-length Jagged1 |  |  |  | capable of inducing gliogenic differentiation
